According to US7578968B1, “Microbiological control in oil or gas field operations” (Albemarle Corporation, priority 2002, dated 2009):

Assays:
Format in all cases: physicochemical
[1] = Comparative study of oxidation reduction potentials (ORP) and halogen residuals in cooling tower water
Procedure: The oxidants studied consisted of WELLGUARD 909 biocide, STABREX biocide (stabilized NaBr+NaOCl), bleach (NaOCl), and activated sodium bromide (NaOCl and NaBr).
Stock solutions of the biocides were prepared at 1000 ppm halogen residual concentration (as Cl2) in brown glass bottles using deionized water for dilution. Solution activities were confirmed using the DPD method and a Hach Co. (Loveland, Colo.) DR/2000 spectrophotometer.
Aliquots of the stock solutions above were added to 1000 mL of cooling tower water that had been pulled from a cooling tower. A 1000 mL beaker was charged with 1000 mL of cooling tower water and stirred while measuring ORP with a Brinkmann Metrohm 716 DMS Titrino automatic titrator. It took about 45 minutes for the sample to equilibrate—the ORP reading would gradually decline to a reading of about 300 mV. The sample was deemed to have equilibrated when the change in the ORP reading was less than or equal to 1 unit/minute. At this point, 0.5 g of stock solution (nominal halogen residual=0.5 ppm) was added and the mixture allowed to equilibrate once again. A sample was pulled to determine free and total halogen residuals and then 0.5 g additional stock solution was added and the process repeated. The following aliquots were added during the experiment: 0.5 g, 1.0 g, 2.0 g, 3.0 g, 4.0 g, 6.0 g, 8.0 g, 10.0 g.

[2] = Reversion of HEDP to orthophosphate by oxidizing biocides; settings: for Phosphate (orthophosphate from HEDP): oxidant 10 ppm as Cl2, pH 9.1, 23° C.
Procedure: (§1) The oxidants studied consisted of WELLGUARD 909 biocide, bleach (NaOCl), and activated sodium bromide (NaOCl and NaBr). The WELLGUARD 909 biocide and bleach were added directly. Activated sodium bromide was prepared in situ by introducing 20 ppm bromide ion to the stock solution followed by addition of bleach. The phosphonates used in this work consisted of AMP (aminomethylene phosphonic acid), HEDP (hydroxyethylidene diphosphonic acid), and PBTC (phosphonobutanetricarboxylic acid). These materials were commercial samples (Mayoquest 1320, 1500, and 2100, respectively) obtained from Callaway Chemical Co. (Smyrna, Ga.).
(§2) Solutions consisting of 5 ppm scale inhibitor (as active phosphonate) in the presence of 10 ppm oxidant (as Cl2) were prepared as follows. To 900 mL deionized water were added appropriate stock solutions containing phosphonate, alkalinity (NaHCO3), and calcium hardness (CaCl2). The pH was adjusted to 9.1 with 5% aq. NaOH and diluted up to 1 L in a dark amber bottle. A dose of oxidant was added to achieve a residual of 10 ppm. The solutions were then periodically monitored for phosphonate reversion by determining the reversion to orthophosphate (Hach method 490). The oxidant residual was also periodically monitored using the DPD method (Hach method 80). All of this work was performed at room temperature (23° C.). The initial active phosphonate content was confirmed by conversion to orthophosphate via UV/persulfate oxidation followed by a conventional phosphate analysis (Hach method 501). A conversion factor was applied to the phosphate measurement to determine the initial amount of active phosphonate present as follows: AMP, 1.05; HEDP, 1.085; PBTC, 2.85.

[3] = Reversion of PBTC to orthophosphate by oxidizing biocides; settings: for Phosphate (orthophosphate from PBTC): oxidant 10 ppm as Cl2, pH 9.1, 23° C.
Procedure: as §1, §2

[4] = Reversion of AMP to orthophosphate by oxidizing biocides; settings: for Phosphate (orthophosphate from AMP): oxidant 10 ppm as Cl2, pH 9.1, 23° C.
Procedure: as §1, §2

[5] = nominal free/total ppm (as Cl2): STABREX 0.49/0.51, WELLGUARD 909 0.42/0.52, Bleach 0.50, Activated NaBr 0.48/0.52
[6] = nominal free/total ppm: STABREX 0.98/1.04, WELLGUARD 909 0.85/1.04, Bleach 1.00, Activated NaBr 0.97/1.05
[7] = nominal free/total ppm: STABREX 2.00/2.11, WELLGUARD 909 1.72/2.12, Bleach 2.04, Activated NaBr 1.97/2.14
[8] = nominal free/total ppm: STABREX 3.04/3.20, WELLGUARD 909 2.62/3.22, Bleach 3.09, Activated NaBr 2.99/3.25
[9] = nominal free/total ppm: STABREX 4.09/4.32, WELLGUARD 909 3.53/4.20, Bleach 4.17, Activated NaBr 4.03/4.39
[10] = nominal free/total ppm: STABREX 6.26/6.60, WELLGUARD 909 5.40/6.63, Bleach 6.37, Activated NaBr 6.17/6.71
[11] = nominal free/total ppm: STABREX 8.47/8.94, WELLGUARD 909 7.31/8.98, Bleach 8.63, Activated NaBr 8.35/9.08
[12] = nominal free/total ppm: STABREX 10.74/11.33, WELLGUARD 909 9.26/11.38, Bleach 10.93, Activated NaBr 10.58/11.51

Actual Residual, ppm Free [1, 5]: 0.13 ppm
Actual Residual, ppm Total [1, 5]: 0.34 ppm
ORP Reading, mV [1, 5]: 500 mV
Actual Residual, ppm Free [1, 6]: 0.29 ppm
Actual Residual, ppm Total [1, 6]: 0.48 ppm
ORP Reading, mV [1, 6]: 620 mV
Actual Residual, ppm Free [1, 7]: 1.12 ppm
Actual Residual, ppm Total [1, 7]: 1.29 ppm
ORP Reading, mV [1, 7]: 659 mV
Actual Residual, ppm Free [1, 8]: 1.88 ppm
Actual Residual, ppm Total [1, 8]: 2.08 ppm
ORP Reading, mV [1, 8]: 672 mV
Actual Residual, ppm Free [1, 9]: 2.98 ppm
Actual Residual, ppm Total [1, 9]: 3.43 ppm
ORP Reading, mV [1, 9]: 678 mV
Actual Residual, ppm Free [1, 10]: 5.24 ppm
Actual Residual, ppm Total [1, 10]: 5.68 ppm
ORP Reading, mV [1, 10]: 683 mV
Actual Residual, ppm Free [1, 11]: 7.68 ppm
Actual Residual, ppm Total [1, 11]: 8.16 ppm
ORP Reading, mV [1, 11]: 685 mV
Actual Residual, ppm Free [1, 12]: 10.08 ppm
Actual Residual, ppm Total [1, 12]: 10.78 ppm
ORP Reading, mV [1, 12]: 689 mV
SMILES: [Na+].[O-]Cl [Bleach, NaOCl]
loss in biocide residual ([1]; conditions of Table 3): significant loss of residual during initial stages of biocide addition
Cl2 (oxidant residual) ([2]; HEDP 5 ppm, initial oxidant 10 ppm as Cl2, pH 9.1, 23° C., 400 minutes): 10.6 ppm
Phosphate (orthophosphate from HEDP) ([2]; HEDP 5 ppm, 20 minutes): 0 ppm
Phosphate (orthophosphate from HEDP) ([2]; HEDP 5 ppm, 40 minutes): 0 ppm
Phosphate (orthophosphate from HEDP) ([2]; HEDP 5 ppm, 70 minutes): 0.2 ppm
Phosphate (orthophosphate from HEDP) ([2]; HEDP 5 ppm, 100 minutes): 0.25 ppm
Phosphate (orthophosphate from HEDP) ([2]; HEDP 5 ppm, 130 minutes): 0.31 ppm
Phosphate (orthophosphate from HEDP) ([2]; HEDP 5 ppm, 190 minutes): 0.61 ppm
Phosphate (orthophosphate from HEDP) ([2]; HEDP 5 ppm, 220 minutes): 0.65 ppm
Phosphate (orthophosphate from HEDP) ([2]; HEDP 5 ppm, 250 minutes): 0.39 ppm
Phosphate (orthophosphate from HEDP) ([2]; HEDP 5 ppm, 280 minutes): 0.41 ppm
Phosphate (orthophosphate from HEDP) ([2]; HEDP 5 ppm, 310 minutes): 0.58 ppm
Phosphate (orthophosphate from HEDP) ([2]; HEDP 5 ppm, 340 minutes): 0.65 ppm
Phosphate (orthophosphate from HEDP) ([2]; HEDP 5 ppm, 370 minutes): 0.84 ppm
Phosphate (orthophosphate from HEDP) ([2]; HEDP 5 ppm, 400 minutes): 0.65 ppm
Phosphate (orthophosphate from HEDP) ([2]; HEDP 5 ppm, 460 minutes): 0.95 ppm
Phosphate (orthophosphate from HEDP) ([2]; HEDP 5 ppm, 520 minutes, maximum liberable phosphate: WELLGUARD 909 4.20, Activated NaBr 4.40, Bleach 4.80 ppm): 0.94 ppm
relative amounts of reversion ([2]; HEDP, after 520 minutes): 19.6%
residual oxidant (as Cl2) ([3]; PBTC 5 ppm, initial oxidant 10 ppm as Cl2, pH 9.1, 23° C., 390 minutes (second 390 line)): 9.5 ppm
Phosphate (orthophosphate from PBTC) ([3]; PBTC 5 ppm, 30 minutes): 0 ppm
Phosphate (orthophosphate from PBTC) ([3]; PBTC 5 ppm, 60 minutes): 0 ppm
Phosphate (orthophosphate from PBTC) ([3]; PBTC 5 ppm, 90 minutes): 0 ppm
Phosphate (orthophosphate from PBTC) ([3]; PBTC 5 ppm, 120 minutes): 0 ppm
Phosphate (orthophosphate from PBTC) ([3]; PBTC 5 ppm, 150 minutes): 0 ppm
Phosphate (orthophosphate from PBTC) ([3]; PBTC 5 ppm, 180 minutes): 0 ppm
Phosphate (orthophosphate from PBTC) ([3]; PBTC 5 ppm, 210 minutes): 0.12 ppm
Phosphate (orthophosphate from PBTC) ([3]; PBTC 5 ppm, 270 minutes): 0.16 ppm
Phosphate (orthophosphate from PBTC) ([3]; PBTC 5 ppm, 330 minutes): 0.05 ppm
Phosphate (orthophosphate from PBTC) ([3]; PBTC 5 ppm, 360 minutes): 0.02 ppm
Phosphate (orthophosphate from PBTC) ([3]; PBTC 5 ppm, 390 minutes (first 390 line)): 0.02 ppm
Phosphate (orthophosphate from PBTC) ([3]; PBTC 5 ppm, 1360 minutes): 0.08 ppm
average amounts of phosphonate reversion ([3]; PBTC, after 3½ hours contact and beyond): 5.2%
Phosphate, average ([3]; PBTC, average 210-1360 minutes, maximum liberable phosphate: WELLGUARD 909 1.72, Activated NaBr 1.82, Bleach 1.44 ppm): 0.075 ppm
Cl2 (oxidant residual) ([4]; AMP 5 ppm, initial oxidant 10 ppm as Cl2, pH 9.1, 23° C., 460 minutes): 9.4 ppm
Phosphate (orthophosphate from AMP) ([4]; AMP 5 ppm, 20 minutes): 0.35 ppm
Phosphate (orthophosphate from AMP) ([4]; AMP 5 ppm, 40 minutes): 0.7 ppm
Phosphate (orthophosphate from AMP) ([4]; AMP 5 ppm, 70 minutes): 0.53 ppm
Phosphate (orthophosphate from AMP) ([4]; AMP 5 ppm, 100 minutes): 0.75 ppm
Phosphate (orthophosphate from AMP) ([4]; AMP 5 ppm, 130 minutes): 0.8 ppm
Phosphate (orthophosphate from AMP) ([4]; AMP 5 ppm, 190 minutes): 0.77 ppm
Phosphate (orthophosphate from AMP) ([4]; AMP 5 ppm, 220 minutes): 0.59 ppm
Phosphate (orthophosphate from AMP) ([4]; AMP 5 ppm, 250 minutes): 0.64 ppm
Phosphate (orthophosphate from AMP) ([4]; AMP 5 ppm, 280 minutes): 0.83 ppm
Phosphate (orthophosphate from AMP) ([4]; AMP 5 ppm, 310 minutes): 0.82 ppm
Phosphate (orthophosphate from AMP) ([4]; AMP 5 ppm, 340 minutes): 0.8 ppm
Phosphate (orthophosphate from AMP) ([4]; AMP 5 ppm, 370 minutes): 0.81 ppm
Phosphate (orthophosphate from AMP) ([4]; AMP 5 ppm, 400 minutes): 0.79 ppm
Phosphate (orthophosphate from AMP) ([4]; AMP 5 ppm, 520 minutes): 0.97 ppm
Phosphate (orthophosphate from AMP) ([4]; AMP 5 ppm, 1360 minutes): 0.91 ppm
averaged amounts of phosphonate reversion ([4]; AMP, Table 4 averages): 18.7%
Phosphate, average ([4]; AMP, average 100-1360 minutes, maximum liberable phosphate: WELLGUARD 909 4.58, Activated NaBr 4.18, Bleach 4.22 ppm): 0.79 ppm
